Values after ≈ are worked out from the molar mass of the structure shown.
conditions: buffer; pH 7.4; 200.0 µM

Which solubility kinetic does the source give for `O=C(CN1C(=O)NC(c2ccccc2)(c2ccccc2)C1=O)NCc1ccco1` here?
Its solubility kinetic is 13.7 µg/mL (≈ 35.2 µM).

For `CCN(CC)C(=O)CN1CCC(c2nc3cc(C)c(C)cc3[nH]2)CC1`, which solubility kinetic is on record?
Its solubility kinetic is > 51.4 µg/mL.

Which solubility kinetic does the source give for `Cc1ccc(-n2c(C)cc(C(=O)OCC(=O)N3CCOCC3)c2C)cc1` here?
Its solubility kinetic is > 53.5 µg/mL.

Which solubility kinetic does the source give for `Oc1ccccc1CNc1nccs1` here?
Its solubility kinetic is > 30.9 µg/mL.

With `COc1ccc(NC(=O)c2cccc(-c3ccc(O)cc3)c2)cn1` as the molecule, how does the solubility kinetic read?
Its solubility kinetic is 9.7 µg/mL (≈ 30.3 µM).

For `CN1CCN(CCNC(=O)Nc2ccccc2[N+](=O)[O-])CC1`, which solubility kinetic is on record?
Its solubility kinetic is 45.5 µg/mL (≈ 148 µM).

For `COc1cccc(NC(=O)c2ccccc2Br)c1`, which solubility kinetic is on record?
Its solubility kinetic is > 45.9 µg/mL.

For `CC(NC(=O)COC(=O)c1cccs1)c1ccccc1` (stereo not given), which solubility kinetic is on record?
The solubility kinetic was 11.9 µg/mL (≈ 41.1 µM).

For `COc1ccc(-c2csc(Nc3ccccn3)n2)cc1`, which solubility kinetic is on record?
Its solubility kinetic is < 0.2 µg/mL.

For `CC(C)(C)c1ccc(OCC(=O)Nc2ccncc2)c(Br)c1`, which solubility kinetic is on record?
Its solubility kinetic is 10.4 µg/mL (≈ 28.6 µM).

With `COC(=O)Cn1cc(C(=O)C(F)(F)F)c2ccccc21` as the molecule, how does the solubility kinetic read?
The solubility kinetic was 13.2 µg/mL (≈ 46.3 µM).

Which solubility kinetic does the source give for `CCOc1ccccc1NC(=O)Cc1coc2ccc(C)cc12` here?
Its solubility kinetic is 7.3 µg/mL (≈ 23.6 µM).

With `CCOC(=O)C1(Cc2ccccc2C)CCCN(C(=O)CCC(=O)OC)C1` (stereo not given) as the molecule, how does the solubility kinetic read?
The solubility kinetic was 53 µg/mL (≈ 141 µM).

For `COc1ccc(C2NC(=O)C(C#N)=C(S)N2c2ccccc2)cc1OC` (stereo not given), which solubility kinetic is on record?
Its solubility kinetic is > 55.1 µg/mL.

For `Clc1ccc(-c2noc(CN3CCOCC3)n2)cc1`, which solubility kinetic is on record?
Its solubility kinetic is > 42 µg/mL.

Which solubility kinetic does the source give for `COC(=O)c1ccc(COc2ncnc3ccccc23)o1` here?
Its solubility kinetic is > 42.6 µg/mL.

With `CC(=O)Nc1ccc2c(c1)ncn2-c1ccc(C)cc1` as the molecule, how does the solubility kinetic read?
Its solubility kinetic is 38.8 µg/mL (≈ 146 µM).

For `CCN(C(=O)CSc1nc(C)c(C)c(C)n1)C1CCS(=O)(=O)C1` (stereo not given), which solubility kinetic is on record?
The solubility kinetic was > 53.6 µg/mL.

For `CCc1ccc(CNCc2cccs2)cc1.Cl`, which solubility kinetic is on record?
Its solubility kinetic is 23.9 µg/mL.

For `CCOC(=O)c1[nH]c2cc3c(cc2c1NC(=O)CN1CCCC1)OCO3`, which solubility kinetic is on record?
Its solubility kinetic is 18 µg/mL (≈ 50.1 µM).

Which solubility kinetic does the source give for `O=C(O)COc1ccc(NC(=O)C(c2ccccc2)c2ccccc2)cc1` here?
Its solubility kinetic is > 54.2 µg/mL.

With `CCC(C(=O)NC(CC(=O)O)c1ccc(Cl)cc1)c1ccccc1` (stereo not given) as the molecule, how does the solubility kinetic read?
Its solubility kinetic is > 51.9 µg/mL.

Which solubility kinetic does the source give for `O=C(NNC(=S)NCCCN1CCOCC1)c1ccncc1` here?
Its solubility kinetic is > 48.5 µg/mL.

For `COc1ccc(NC(=O)CN(c2ccccc2OC)S(=O)(=O)c2cccs2)cc1Cl`, which solubility kinetic is on record?
Its solubility kinetic is 2.9 µg/mL (≈ 6.21 µM).

Which solubility kinetic does the source give for `COc1ccc(NC(=O)c2cc3ccccc3o2)cn1` here?
Its solubility kinetic is 3.8 µg/mL (≈ 14.2 µM).

With `COc1ccc(NC(=O)c2cc(-c3ccccc3)on2)cc1OC` as the molecule, how does the solubility kinetic read?
Its solubility kinetic is < 0.3 µg/mL.

Which solubility kinetic does the source give for `COc1ccccc1C(=O)C1CCCN(Cc2cnc(C)s2)C1` (stereo not given) here?
Its solubility kinetic is > 49.6 µg/mL.

For `CN(CCc1ccccn1)C(=S)Nc1ccc(Cl)cc1Cl`, which solubility kinetic is on record?
The solubility kinetic was 46.2 µg/mL (≈ 136 µM).

Which solubility kinetic does the source give for `CCN1CCc2c(OCc3ccc(C)cc3)cccc2C1=O` here?
Its solubility kinetic is 18.9 µg/mL (≈ 64 µM).

For `CC1CCCCC12NC(=O)N(CC(=O)N1CCN(c3ccccc3)CC1)C2=O` (stereo not given), which solubility kinetic is on record?
Its solubility kinetic is > 57.7 µg/mL.

With `O=C(O)CCCC(=O)NCc1c(Cl)cccc1Sc1ccc(Cl)cc1` as the molecule, how does the solubility kinetic read?
Its solubility kinetic is > 59.7 µg/mL.

With `COc1nc(-c2cccc([N+](=O)[O-])c2)nc2ccccc12` as the molecule, how does the solubility kinetic read?
Its solubility kinetic is < 0.2 µg/mL.

Which solubility kinetic does the source give for `COC(=O)c1ccc(-c2ncc[nH]2)cc1` here?
The solubility kinetic was > 30.3 µg/mL.

For `c1ccc(C2CC(c3ccccc3)C(c3ccccc3)N2)cc1` (stereo not given), which solubility kinetic is on record?
The solubility kinetic was 8.4 µg/mL (≈ 28.1 µM).

Which solubility kinetic does the source give for `C/C(CC(=O)NC(C)c1ccccc1)=N\NC(N)=S` (stereo not given) here?
The solubility kinetic was > 41.8 µg/mL.

Which solubility kinetic does the source give for `CC(=O)c1ccccc1OC(=O)c1ccc([N+](=O)[O-])o1` here?
Its solubility kinetic is > 41.3 µg/mL.

For `Fc1ccc(CNCc2ccco2)cc1`, which solubility kinetic is on record?
Its solubility kinetic is 11.8 µg/mL (≈ 57.5 µM).

Which solubility kinetic does the source give for `COc1ccc(CCNC(=O)c2ccc3nc[nH]c3c2)cc1` here?
The solubility kinetic was > 44.3 µg/mL.

Which solubility kinetic does the source give for `Clc1cccc(CN2CCSCC2)c1Cl` here?
The solubility kinetic was 1 µg/mL (≈ 3.81 µM).

Which solubility kinetic does the source give for `CCCCn1c(C)c(C(=O)O)c2cc(OC)c3ccccc3c21` here?
Its solubility kinetic is 2.9 µg/mL (≈ 9.31 µM).

With `CCOC(=O)c1cn2nc(Oc3cccc(F)c3)ccc2n1` as the molecule, how does the solubility kinetic read?
Its solubility kinetic is > 45.2 µg/mL.

With `CN(C)/C=C1\N=C(c2cccnc2Oc2ccc(Cl)cc2)OC1=O` as the molecule, how does the solubility kinetic read?
The solubility kinetic was 1.6 µg/mL (≈ 4.65 µM).

With `COc1ccc2c(c1)C(C)CC(C)(C)N2C(=O)Nc1ccccc1` (stereo not given) as the molecule, how does the solubility kinetic read?
The solubility kinetic was 13.4 µg/mL (≈ 41.3 µM).

With `CCOc1ccc(C(=O)NCC(=O)OCC(=O)N2CCCC2)cc1` as the molecule, how does the solubility kinetic read?
Its solubility kinetic is > 50.2 µg/mL.

With `CC(=O)c1ccccc1NC(=O)COC(=O)c1cc(C)oc1C` as the molecule, how does the solubility kinetic read?
The solubility kinetic was 2.2 µg/mL (≈ 6.98 µM).

For `O=C(c1ccccc1)c1cc2cc(Cl)ccc2[nH]1`, which solubility kinetic is on record?
Its solubility kinetic is < 0.5 µg/mL.

With `O=C(O)CC(NC(=O)C12CC3CC(CC(C3)C1)C2)c1ccc(F)cc1` (stereo not given) as the molecule, how does the solubility kinetic read?
Its solubility kinetic is > 51.8 µg/mL.

Which solubility kinetic does the source give for `NC(=O)c1cc(-c2csc(NCCc3ccccc3)n2)ccc1O` here?
The solubility kinetic was 8 µg/mL (≈ 23.6 µM).

For `O=C1NC(=S)NC(=O)C1=Cc1ccc(OCC(=O)N2CCCC2)cc1`, which solubility kinetic is on record?
The solubility kinetic was 51.8 µg/mL (≈ 144 µM).

Which solubility kinetic does the source give for `NS(=O)(=O)c1ccc(Sc2nc3ccccc3s2)c([N+](=O)[O-])c1` here?
Its solubility kinetic is 1.7 µg/mL (≈ 4.63 µM).

With `O=C(OCC(=O)c1ccc(Cl)cc1Cl)c1cnccn1` as the molecule, how does the solubility kinetic read?
The solubility kinetic was > 46.7 µg/mL.

Which solubility kinetic does the source give for `N#Cc1ccc(S(=O)(=O)NC2CCN(Cc3ccccc3)CC2)cc1` here?
The solubility kinetic was 42.5 µg/mL (≈ 120 µM).

For `CSc1ccccc1NC(=O)COc1ccc2c(c1)OCO2`, which solubility kinetic is on record?
The solubility kinetic was 41.4 µg/mL (≈ 130 µM).

With `CCc1ccc2[nH]c(C)c(CN3CCCCCC3)c(=O)c2c1` as the molecule, how does the solubility kinetic read?
The solubility kinetic was > 44.8 µg/mL.

For `CCCn1cnc2scc(-c3ccc(OC)cc3)c2c1=O`, which solubility kinetic is on record?
Its solubility kinetic is 13.9 µg/mL (≈ 46.3 µM).

With `Cc1cccc(C)c1NC(=O)N1C2CCC1CC(O)(c1cccnc1)C2` (stereo not given) as the molecule, how does the solubility kinetic read?
Its solubility kinetic is > 52.7 µg/mL.

For `CCN(CC(=O)NCc1ccc(F)cc1)CC(=O)NC1CCCC1`, which solubility kinetic is on record?
Its solubility kinetic is > 50.3 µg/mL.

Which solubility kinetic does the source give for `CC(C)(C)C(=O)O/N=C(\N)c1c(Cl)cccc1Cl` here?
The solubility kinetic was 30.9 µg/mL (≈ 107 µM).

Which solubility kinetic does the source give for `Cc1cc(C(=O)Nc2ccc([N+](=O)[O-])cn2)cs1` here?
The solubility kinetic was 6.2 µg/mL (≈ 23.5 µM).

With `COCCCNC(=O)C1c2ccccc2Oc2ccccc21` as the molecule, how does the solubility kinetic read?
The solubility kinetic was 15.2 µg/mL (≈ 51.1 µM).

With `COc1ccc(NC(=S)NC2CC3CCC2C3)c(OC)c1` (stereo not given) as the molecule, how does the solubility kinetic read?
The solubility kinetic was 14.8 µg/mL (≈ 48.3 µM).

Which solubility kinetic does the source give for `CN1c2ccccc2C(=O)NC1c1ccc([N+](=O)[O-])s1` (stereo not given) here?
The solubility kinetic was 31.2 µg/mL (≈ 108 µM).

With `COc1ccc(CNC(=O)COC(=O)Cc2ccc(Br)cc2)cc1` as the molecule, how does the solubility kinetic read?
The solubility kinetic was 5.8 µg/mL (≈ 14.8 µM).

For `O=C(NC(=S)Nc1cccc2ncccc12)c1cccs1`, which solubility kinetic is on record?
Its solubility kinetic is 1.7 µg/mL (≈ 5.42 µM).

With `CC1CC(C)CN(C(=O)c2cc3ccccc3o2)C1` (stereo not given) as the molecule, how does the solubility kinetic read?
Its solubility kinetic is 28.7 µg/mL (≈ 112 µM).

With `CNC(=O)/C(C#N)=C/c1c(N2CCN(C)CC2)nc2c(C)cccn2c1=O` as the molecule, how does the solubility kinetic read?
Its solubility kinetic is > 55 µg/mL.

Which solubility kinetic does the source give for `CCNC(=O)c1ccc(NS(=O)(=O)c2ccc3[nH]c(=O)[nH]c3c2)cc1` here?
The solubility kinetic was > 54.1 µg/mL.

Which solubility kinetic does the source give for `Cc1ccccc1C(=O)N1CCC(C(=O)NC2CCCCC2)CC1` here?
The solubility kinetic was 44.4 µg/mL (≈ 135 µM).

With `Cc1ccc(NCC(=O)N/N=C/c2ccc(C(=O)O)cc2)cc1` as the molecule, how does the solubility kinetic read?
Its solubility kinetic is > 46.7 µg/mL.

For `CC(=O)c1c(C)[nH]c(C(=O)N2CC(C)CC(C)C2)c1C` (stereo not given), which solubility kinetic is on record?
The solubility kinetic was > 41.5 µg/mL.

With `CCOC(=O)c1c(C)[nH]c(C(=O)COc2ccc3ccc(=O)oc3c2)c1C` as the molecule, how does the solubility kinetic read?
The solubility kinetic was 9.2 µg/mL (≈ 24.9 µM).

Which solubility kinetic does the source give for `O=C(Nc1cccnc1)c1ccc(Cl)c(Cl)c1` here?
Its solubility kinetic is 40 µg/mL (≈ 150 µM).

For `CCOc1ccc(C2NC(=O)c3ccccc3O2)cc1OC` (stereo not given), which solubility kinetic is on record?
The solubility kinetic was 3.3 µg/mL (≈ 11 µM).

With `CCN(c1cccc2ccccc12)S(=O)(=O)c1cccs1` as the molecule, how does the solubility kinetic read?
Its solubility kinetic is 12.5 µg/mL (≈ 39.4 µM).

For `O=C(Oc1ccc(Cl)c(Cl)c1)C1=CC=CN2CCS(=O)(=O)N=C12`, which solubility kinetic is on record?
The solubility kinetic was 19.7 µg/mL (≈ 52.8 µM).

For `CC(C)C(=O)Nc1ccccc1-c1nc2ccccc2[nH]c1=O`, which solubility kinetic is on record?
Its solubility kinetic is > 46.1 µg/mL.

With `COCCCNc1nc2nonc2nc1N1CCN2CCCC2C1` (stereo not given) as the molecule, how does the solubility kinetic read?
Its solubility kinetic is > 50 µg/mL.

Which solubility kinetic does the source give for `O=C(Nc1ccccc1C(=O)NCCCN1CCOCC1)c1ccccc1` here?
Its solubility kinetic is > 55.1 µg/mL.

Which solubility kinetic does the source give for `Cc1ccc(OCC(=O)O/N=C(\N)c2cccc([N+](=O)[O-])c2)cc1C` here?
Its solubility kinetic is 1.8 µg/mL (≈ 5.24 µM).

Which solubility kinetic does the source give for `Cc1ccc(C)c(NC(=O)CCOc2ccccc2)c1` here?
The solubility kinetic was 3.7 µg/mL (≈ 13.7 µM).

For `O=S(=O)(c1ccc(F)c(F)c1)N1CCN(c2ccccn2)CC1`, which solubility kinetic is on record?
Its solubility kinetic is 1.5 µg/mL (≈ 4.42 µM).

For `CCOc1cc(C(N)=O)cc(Br)c1OCc1ccccc1`, which solubility kinetic is on record?
Its solubility kinetic is 12.8 µg/mL (≈ 36.5 µM).

With `CN1C(C(=O)Nc2ncccn2)=C(O)c2ccccc2S1(=O)=O` as the molecule, how does the solubility kinetic read?
The solubility kinetic was > 49.8 µg/mL.

Which solubility kinetic does the source give for `O=C(NCc1ccc2c(c1)OCO2)c1cccnc1Cl` here?
The solubility kinetic was 37.9 µg/mL (≈ 130 µM).

For `O=C(O)c1ccc(NC2CC(=O)N(Cc3ccccc3)C2=O)cc1` (stereo not given), which solubility kinetic is on record?
Its solubility kinetic is > 48.7 µg/mL.

Reference: PubChem BioAssay AID1996
